Data published in US10214492B2, “Heterocyclic inhibitors of MCT4” (Vettore, LLC, priority 2016, dated 2019).

Experiments:
[1] = target: MCT1 (Homo sapiens (Human), UniProt P53985); assay: Assay 4: MCT1-mediated lactate transport in BT20 breast cancer cells; type: cell-based; settings: Table 27
Protocol: (§1) 10 μL of a 30 mM DMSO stock of BCECF-AM ester (Life Technologies) is added and the cells are incubated at 37° C. for 5 min. The cells are pelleted (300 g, 5 min), washed once with 1 mL Tyrode's Solution, pH 7.4, re-pelleted (300 g, 5 min), and resuspended in 1 mL Tyrode's Solution, pH 7.4.
Assay 4: MCT1-Mediated Lactate Transport in BT20 Breast Cancer Cells.
Preparation of BCECF loaded cells are as described for Assay 1. Lactate transport assay is as described for Assay 1, except 10 mM L-lactate (rather than 50 mM) is added.

[2] = target: MCT4 (Homo sapiens (Human), UniProt O15427); assay: Assay 3: MCT4-mediated lactate transport in MDA-MB-231 breast cancer cells; type: cell-based; settings: MDA-MB-231 cells; lactate transport
Protocol: as §1
MCT4 activity may be assessed by monitoring the intracellular pH change that accompanies lactate/proton symport, using the pH-sensitive fluorescent dye 2′,7′-bis-(carboxyethyl)-5(6)-carboxyfluorescein (BCECF), in a manner similar to that previously reported for MCT1 and MCT4. The following is an exemplary procedure for assaying MCT4 activity of the compounds of Formula (I).

Chain of MCT1 (P53985 whole entry): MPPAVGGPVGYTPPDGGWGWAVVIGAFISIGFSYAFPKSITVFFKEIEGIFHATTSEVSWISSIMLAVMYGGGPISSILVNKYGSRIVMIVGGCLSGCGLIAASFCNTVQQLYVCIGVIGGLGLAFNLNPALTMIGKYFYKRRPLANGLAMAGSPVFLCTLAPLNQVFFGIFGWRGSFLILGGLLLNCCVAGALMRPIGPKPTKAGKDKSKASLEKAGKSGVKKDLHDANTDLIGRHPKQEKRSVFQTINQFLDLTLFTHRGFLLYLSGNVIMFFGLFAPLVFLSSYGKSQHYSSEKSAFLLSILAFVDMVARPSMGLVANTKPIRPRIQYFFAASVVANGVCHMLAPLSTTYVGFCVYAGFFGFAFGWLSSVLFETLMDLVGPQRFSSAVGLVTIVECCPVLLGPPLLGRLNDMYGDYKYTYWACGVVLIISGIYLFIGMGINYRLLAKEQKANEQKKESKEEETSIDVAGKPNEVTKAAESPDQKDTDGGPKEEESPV
Chain of MCT1 (P35613 140-385 partner): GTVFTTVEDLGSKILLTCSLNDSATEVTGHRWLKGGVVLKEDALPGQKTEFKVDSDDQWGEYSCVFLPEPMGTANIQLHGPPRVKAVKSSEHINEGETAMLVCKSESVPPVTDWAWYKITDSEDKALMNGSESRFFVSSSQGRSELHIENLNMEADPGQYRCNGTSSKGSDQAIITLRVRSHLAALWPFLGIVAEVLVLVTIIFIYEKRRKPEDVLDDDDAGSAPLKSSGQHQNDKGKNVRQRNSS
Chain of MCT4 (O15427 whole entry, looked up): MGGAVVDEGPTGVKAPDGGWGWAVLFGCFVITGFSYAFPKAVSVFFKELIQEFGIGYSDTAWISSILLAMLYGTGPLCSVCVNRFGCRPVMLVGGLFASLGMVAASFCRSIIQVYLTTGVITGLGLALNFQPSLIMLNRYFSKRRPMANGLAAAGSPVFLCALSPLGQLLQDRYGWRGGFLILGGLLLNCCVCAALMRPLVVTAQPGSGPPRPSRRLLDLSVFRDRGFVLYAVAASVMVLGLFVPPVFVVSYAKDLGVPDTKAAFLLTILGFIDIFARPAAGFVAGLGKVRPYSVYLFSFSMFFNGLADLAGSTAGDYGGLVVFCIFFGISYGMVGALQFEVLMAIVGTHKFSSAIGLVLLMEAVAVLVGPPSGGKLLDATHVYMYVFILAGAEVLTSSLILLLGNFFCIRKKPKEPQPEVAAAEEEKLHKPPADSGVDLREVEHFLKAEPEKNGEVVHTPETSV
Chain of MCT4 (P35613 whole entry partner, looked up): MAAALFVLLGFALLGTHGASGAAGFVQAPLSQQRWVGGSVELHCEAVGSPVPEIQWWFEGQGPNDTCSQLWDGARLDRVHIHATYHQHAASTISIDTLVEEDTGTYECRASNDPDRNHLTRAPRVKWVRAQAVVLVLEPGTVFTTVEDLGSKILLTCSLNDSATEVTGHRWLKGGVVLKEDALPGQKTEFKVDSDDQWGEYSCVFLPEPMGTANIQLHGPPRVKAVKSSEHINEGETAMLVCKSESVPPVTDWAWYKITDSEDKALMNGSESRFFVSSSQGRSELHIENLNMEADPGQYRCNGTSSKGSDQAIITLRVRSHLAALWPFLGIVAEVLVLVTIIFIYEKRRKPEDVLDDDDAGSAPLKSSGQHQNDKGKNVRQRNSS

SMILES | IC50 [1] | IC50 [2]
Cn1ncc2ccc(-c3cc(COC(C)(C)C(=O)O)nn3-c3ccccc3N3CCCC3)cc21 [Example 230, 2-Methyl-2-([5-(1-methyl-1H-indazol-6-yl)-1-[2-(pyrrolidin-1-yl)phenyl]-1H-pyrazol-3-yl]methoxy]propanoic acid] | 92000 nM | 8.1 nM
COc1cc(OC)cc(-c2cc(COC(C)(C)C(=O)O)nn2-c2ccccc2N2CCCC2)c1 [Example 231, 2-([5-(3,5-Dimethoxyphenyl)-1-[2-(pyrrolidin-1-yl)phenyl]-1H-pyrazol-3-yl]-methoxy)-2-methylpropanoic acid] | 63000 nM | 4.5 nM
CCOc1ccccc1Cn1nc(COC(C)(C)C(=O)O)cc1-c1ccc2cnn(C)c2c1 [Example 207, 2-([1-[(2-Ethoxyphenyl)methyl]-5-(1-methyl-1H-indazol-6-yl)-lH-pyrazol-3-yl]-methoxy)-2-methylpropanoic acid] | 3200 nM | 15 nM
CC(C)c1ccccc1-n1nc(COC(C)(C)C(=O)O)cc1-c1cccc(OC2CC2)c1 [Example 189, 2-([5-(3-cyclopropoxyphenyl)-1-[2-(propan-2-yl)phenyl]-1H-pyrazol-3-yl]methoxy)-2-methylpropanoic acid] | 22000 nM | 18 nM
CC(C)(OCc1cc(-c2cccc(OCC3COC3)c2)n(-c2ccccc2Cl)n1)C(=O)O [Example 173, 2-([1-(2-Chlorophenyl)-5-[3-(oxetan-3-yl-methoxy)phenyl)-1H-pyraz.ol-3-yl]-methoxy)-2-methylpropanoic acid] | 66000 nM | 230 nM
COc1cccc(-c2cc(COC(C)(C)C(=O)O)nn2-c2ccccc2OC(C)C)c1 [Example 215, 2-([5-(3-Methoxyphenyl)-1-[2-(propan-2-yloxy)phenyl]-l//-pyrazol-3-yl]mcthoxy)-2-methylpropanoic acid] | > 100000 nM | 360 nM
Cc1nn(C)c2sc(-c3cc(COC(C)(C)C(=O)O)nn3Cc3ccccc3Cl)cc12 [Example 265, 2-([1-[(2-Chlorophenyl)methyl]-5-[1,3-dimethyl-1H-thieno[2,3-c]pyrazol-5-yl]-1H-pyrazol-3-yl)methoxy)-2-methylpropanoic acid] | 84000 nM | 5.6 nM
COc1ccccc1-n1nc(COC(C)(C)C(=O)O)cc1-c1cccc(OC(C)C)c1 [Example 113, 2-([1-(2-Methoxyphenyl)-5-[3-(propan-2-yloxy)phenyl]-1H-pyrazol-3-yl]methoxy)-2-methylpropanoic acid] | 33000 nM | 6.7 nM
CC(C)(OCc1cc(-c2cccc(OC3CC3)c2)n(-c2ccccc2OC(F)F)n1)C(=O)O [Example 186, 2-([5-(3-Cyclopropoxyphenyl)-1-[2-(difluoromethoxy)phenyl]-1H-pyrazol-3-yl]-methoxy)-2-methylpropanoic acid] | 90000 nM | 21.5 nM
CCOc1ccccc1Cn1nc(COC(C)(C)C(=O)O)cc1-c1cccc(OC)c1 [Example 141, 2-([1-[(2-Ethoxyphenyl)methyl]-5-(3-methoxyphenyl)-1H-pyrazol-3-yl]methoxy)-2-methylpropanoic acid] | 33000 nM | 6.7 nM
CC(C)(OCc1cc(-c2cccc(OC3CCC3)c2)n(-c2ccccc2F)n1)C(=O)O [Example 159, 2-([5-(3-Cyclobutoxyphenyl)-1-(2-fluoro-phenyl)-1H-pyrazol-3-yl]methoxy)-2-methylpropanoic acid] | > 100000 nM | 11 nM
CC(C)(C)COc1cccc(-c2cc(COC(C)(C)C(=O)O)nn2-c2cccc3cccnc23)c1 [Example 253, 2-([5-[3-(2,2-Dimethylpropoxy)phenyl]-1-(quinolin-8-yl)-1H-pyrazol-3-yl]methoxy)-2-methylpropanoic acid] | 55000 nM | 19 nM
COc1ccc(-c2cc(COC(C)(C)C(=O)O)nn2Cc2ccccc2Cl)cc1 [Example 127, 2-([1-[(2-Chlorophenyl)methyl]-5-(4-methoxyphenyl)-1H-pyrazol-3-yl]methoxy)-2-methylpropanoic acid] | 15000 nM | 41 nM
CC(C)(OCc1cc(-c2cccc(OC3CCC3)c2)n(Cc2ccccc2N2CCCC2)n1)C(=O)O [Example 238, 2-([5-(3-Cyclobutoxyphenyl)-1-[[2-(pyrrolidin-1-yl)phenyl]methyl]-1H-pyrazol-3-yl]methoxy)-2-methylpropanoic acid] | 21000 nM | 3.7 nM
COc1ccccc1-n1nc(COC(C)(C)C(=O)O)cc1-c1cccc(OC2CC2)c1 [Example 112, 2-([5-(3-cyclopropoxyphenyl)-1-(2-methoxyphenyl)-1H-pyrazol-3-yl]methoxy)-2-methylpropanoic acid] | 94000 nM | 29 nM
CCn1ncc2ccc(-c3cc(COC(C)(C)C(=O)O)nn3-c3cccc4cnn(C)c34)cc21 [Example 165, 2-([5-(1-Ethyl-1H-indazol-6-yl)-1-(1-methyl-1H-indazol-7-yl)-1H-pyrazol-3-yl]-methoxy)-2-methylpropanoic acid] | 99000 nM | 85 nM
CC(C)(OCc1cc(-c2cccc(OC3CC3)c2)n(-c2cc(Cl)ccc2Cl)n1)C(=O)O [Example 185, 2-([5-(3-Cyclopropoxyphenyl)-1-(2,5-dichlorophenyl)-1H-pyrazol-3-yl]methoxy)-2-methylpropanoic acid] | 17000 nM | 9.3 nM
CN(C)c1ccccc1-n1nc(COC(C)(C)C(=O)O)cc1-c1cccc(OC2CC2)c1 [Example 114, 2-([5-(3-cyclopropoxyphenyl)-1-[2-(dimethylamino)phenyl]-1H-pyrazol-3-yl]methoxy)-2-methylpropanoic acid] | 73000 nM | 4.3 nM
COc1cccc(-c2cc(CCC(C)(C)C(=O)O)nn2Cc2ccccc2Cl)c1 [Example 144, 4-[1-[(2-chlorophenyl)methyl]-5-(3-methoxyphenyl)-1H-pyrazol-3-yl]-2,2-dimethylbutanoic Acid] | 2400 nM | 127 nM
CC(C)(OCc1cc(-c2cccc(OC3CC3)c2)n(-c2ccccc2N2CC[C@@H](O)C2)n1)C(=O)O [Example 237, 2-([5-(3-Cyclopropoxyphenyl)-1-[2-[(3R)-3-hydroxypyrrolidin-1-yl]phenyl]-1H-pyrazol-3-yl]methoxy)-2-methylpropanoic acid] | > 100000 nM | 160 nM
COc1cccc(-c2cc(COC(C)(C)C(=O)O)nn2CC2CCOCC2)c1 [Example 138, 2-([5-(3-Methoxyphenyl)-1-([oxan-4-yl]-methyl)-1H-pyrazol-3-yl]methoxy)-2-methylpropanoic acid] | > 100000 nM | 535 nM
CC[C@H](OCc1cc(-c2cccc(OC)c2)n(Cc2ccccc2Cl)n1)C(=O)O [Example 122, (2S)-2-([1-[(2-Chlorophenyl)methyl]-5-(3-methoxyphenyl)-1H-pyrazol-3-yl]methoxy)-butanoic acid] | 2500 nM | 50 nM
Cc1ccccc1-n1nc(COC(C)(C)C(=O)O)cc1-c1cccc(OCC(C)C)c1 [Example 105, 2-Methyl-2-([1-(2-methylphenyl)-5-[3-(2-methylpropoxy)phenyl]-1H-pyrazol-3-yl]methoxy]propanoic acid] | 15000 nM | 7.6 nM
CCn1ncc2ccc(-c3cc(COC(C)(C)C(=O)O)nn3-c3ccccc3N(C)C)cc21 [Example 163, 2-([1-[2-(dimethylamino)phenyl]-5-(1-ethyl-1H-indazol-6-yl)-1Hpyrazol-3-yl]-methoxy)-2-methylpropanoic acid] | 73000 nM | 4.4 nM
CCOc1cc(OCC)cc(-c2cc(COC(C)(C)C(=O)O)nn2Cc2ccccc2OCC)c1 [Example 208, 2-([5-(3,5-Diethoxyphenyl)-1-[(2-ethoxy-phenyl)methyl]-1H-pyrazol-3-yl]methoxy)-2-methylpropanoic acid] | 17000 nM | 7.5 nM
CCn1ncc2ccc(-c3cc(COC(C)(C)C(=O)O)nn3Cc3ccccc3Cl)cc21 [Example 151, Sodium 2-([1-[(2-chlorophenyl)methyl]-5-(1-ethyl-1H-indazol-6-yl)-1H-pyrazol-3-yl]methoxy)-2-methylpropanoate] | 70000 nM | 3.6 nM
COc1cc(OC)cc(-c2cc(COC(C)(C)C(=O)O)nn2-c2ccccc2N(C)C)c1 [Example 245, 2-([5-(3,5-Dimethoxyphenyl)-1-[2-(dimethylamino)phenyl)-1H-pyrazol-3-yl]-methoxy)-2-methylpropanoic acid] | 77000 nM | 7.6 nM
CC(C)COc1cccc(-c2cc(COC(C)(C)C(=O)O)nn2Cc2ccccc2N(C)C)c1 [Example 109, 2-[(1-[[2-(Dimethylamino)phenyl]-methyl]-5-[3-(2-methylpropoxy)phenyl]-1H-pyrazol-3-yl)methoxy)-2-methylpropanoic acid] | > 11000 nM | 2.1 nM
CC(C)(OCc1cc(-c2ccc3c(c2)OCCO3)n(Cc2ccccc2Cl)n1)C(=O)O [Example 203, 2-([1-[(2-Chlorophenyl)methyl]-5-(2,3-dihydro-1,4-benzodioxin-6-yl)-1H-pyrazol-3-yl]methoxy)-2-methylpropanoic acid] | 93000 nM | 185 nM
Cc1n[nH]c2cccc(-n3nc(COC(C)(C)C(=O)O)cc3-c3cccc(OC4CC4)c3)c12 [Example 154, 2-([5-(3-cyclopropoxyphenyl)-1-(3-methyl-1H-indazol-4-yl)-1H-pyrazol-3-yl]methoxy)-2-methylpropanoic Acid] | > 100000 nM | 240 nM
